These results are taken from ChEMBL document CHEMBL4390652, “Design, biological evaluation and X-ray crystallography of nanomolar multifunctional ligands targeting simultaneously acetylcholinesterase and glycogen synthase kinase-3” (Eur J Med Chem, 2019).

Structures are written as SMILES.

Assay [1] deals with RAC-gamma serine/threonine-protein kinase (Homo sapiens) (UniProt Q9Y243). Nature of the assay: Binding affinity to wild-type human partial length AKT3 expressed in bacterial expression system assessed as residual binding level at 10 uM by Kinomescan method relative to control.
The target of assay [2] is ALK tyrosine kinase receptor (Homo sapiens) (UniProt Q9UM73). Description: Binding affinity to wild-type human partial length ALK (I1088 to E1409 residues) expressed in mammalian expression system assessed as residual binding level at 10 uM by Kinomescan method relative to control.
Assay [3] has as its target Cyclin-dependent kinase 9 (Homo sapiens) (UniProt P50750). Description: Binding affinity to wild-type human full length CDK9 (M1 to F372 residues) expressed in bacterial expression system assessed as residual binding level at 10 uM by Kinomescan method relative to control.
For assay [4], the target named is Serine/threonine-protein kinase Chk1 (Homo sapiens) (UniProt O14757). Nature of the assay: Binding affinity to wild-type human partial length CHEK1 (M1 to G289 residues) expressed in bacterial expression system assessed as residual binding level at 10 uM by Kinomescan method relative to control.
Assay [5] has as its target Casein kinase I isoform alpha-like (Homo sapiens) (UniProt Q8N752). Description: Binding affinity to wild-type human full length CSNK1A1L (M1 to N337 residues) expressed in bacterial expression system assessed as residual binding level at 10 uM by Kinomescan method relative to control.
Assay [6] concerns the target Casein kinase II subunit alpha' (Homo sapiens) (UniProt P19784). Nature of the assay: Binding affinity to wild-type human full length CSNK2A2 (M1 to R350 residues) expressed in mammalian expression system assessed as residual binding level at 10 uM by Kinomescan method relative to control.
Assay [7] addresses Ephrin type-B receptor 3 (Homo sapiens) (UniProt P54753). Description: Binding affinity to wild-type human partial length EPHB3 (Q599 to T928 residues) expressed in bacterial expression system assessed as residual binding level at 10 uM by Kinomescan method relative to control.
The target of assay [8] is Receptor tyrosine-protein kinase erbB-4 (Homo sapiens) (UniProt Q15303). Nature of the assay: Binding affinity to wild-type human partial length ERBB4 (L690 to K994 residues) expressed in bacterial expression system assessed as residual binding level at 10 uM by Kinomescan method relative to control.
Assay [9] concerns the target Mitogen-activated protein kinase 1 (Homo sapiens) (UniProt P28482). Nature of the assay: Binding affinity to wild-type human full length ERK2 (M1 to S360 residues) expressed in bacterial expression system assessed as residual binding level at 10 uM by Kinomescan method relative to control.
Assay [10] has as its target Focal adhesion kinase 1 (Homo sapiens) (UniProt Q05397). Description: Binding affinity to wild-type human partial length FAK (D402 to R696 residues) expressed in bacterial expression system assessed as residual binding level at 10 uM by Kinomescan method relative to control.
Assay [11] deals with Inhibitor of nuclear factor kappa-B kinase subunit epsilon (Homo sapiens) (UniProt Q14164). Description: Binding affinity to wild-type human full length IKK-epsilon (M1 to V716 residues) expressed in mammalian expression system assessed as residual binding level at 10 uM by Kinomescan method relative to control.
The target in assay [12] is Tyrosine-protein kinase JAK2 (Homo sapiens) (UniProt O60674). Description: Binding affinity to wild-type human partial length JAK2 JH1 catalytic domain (A829 to G1132 residues) expressed in mammalian expression system assessed as residual binding level at 10 uM by Kinomescan method relative to control.
For assay [13], the target named is Serine/threonine-protein kinase LATS1 (Homo sapiens) (UniProt O95835). Nature of the assay: Binding affinity to wild-type human partial length LATS1 (Q678 to V1130 residues) expressed in bacterial expression system assessed as residual binding level at 10 uM by Kinomescan method relative to control.
Assay [14] concerns the target LIM domain kinase 2 (Homo sapiens) (UniProt P53671). Description: Binding affinity to wild-type human full length LIMK2 (M1 to P638 residues) expressed in bacterial expression system assessed as residual binding level at 10 uM by Kinomescan method relative to control.
For assay [15], the system named is Leucine-rich repeat serine/threonine-protein kinase 2 (Homo sapiens), Q5S007 [G2019S]. Nature of the assay: Binding affinity to human partial length LRRK2 G2019S mutant (H970 to E2527 residues) expressed in mammalian expression system assessed as residual binding level at 10 uM by Kinomescan method relative to control.
Assay [16] addresses MAP kinase-interacting serine/threonine-protein kinase 2 (Homo sapiens) (UniProt Q9HBH9). Description: Binding affinity to wild-type human partial length MKNK2 (G63 to S388 residues) expressed in mammalian expression system assessed as residual binding level at 10 uM by Kinomescan method relative to control.
Assay [17] addresses Serine/threonine-protein kinase 26 (Homo sapiens) (UniProt Q9P289). Nature of the assay: Binding affinity to wild-type human full length MST4 (M1 to P416 residues) expressed in mammalian expression system assessed as residual binding level at 10 uM by Kinomescan method relative to control.
The target of assay [18] is Serine/threonine-protein kinase Nek10 (Homo sapiens) (UniProt Q6ZWH5). Description: Binding affinity to wild-type human partial length NEK10 (L488 to R809 residues) expressed in mammalian expression system assessed as residual binding level at 10 uM by Kinomescan method relative to control.
Assay [19] deals with Calcium-dependent protein kinase 1 (Plasmodium falciparum) (UniProt P62344). Description: Binding affinity to wild-type Plasmodium falciparum full length CDPK1 (M1 to S524 residues) expressed in mammalian expression system assessed as residual binding level at 10 uM by Kinomescan method relative to control.
The subject of assay [20] is Phosphatidylinositol 4,5-bisphosphate 3-kinase catalytic subunit alpha isoform (Homo sapiens), P42336 [E545K]. Nature of the assay: Binding affinity to human partial length PIK3CA E545K mutant (R108 to N1068 residues) expressed in mammalian expression system assessed as residual binding level at 10 uM by Kinomescan method relative to control.
In assay [21] the target is 1-phosphatidylinositol 3-phosphate 5-kinase (Homo sapiens) (UniProt Q9Y2I7). Description: Binding affinity to wild-type human partial length PIKFYVE (F1512 to C2098 residues) expressed in mammalian expression system assessed as residual binding level at 10 uM by Kinomescan method relative to control.
Assay [22] has as its target Protein kinase C delta type (Homo sapiens) (UniProt Q05655). Nature of the assay: Binding affinity to wild-type human partial length PRKCD (Q328 to D676 residues) expressed in bacterial expression system assessed as residual binding level at 10 uM by Kinomescan method relative to control.
Assay [23] concerns the target Vascular endothelial growth factor receptor 2 (Homo sapiens) (UniProt P35968). Nature of the assay: Binding affinity to wild-type human partial length VEGFR2 (R787 to P1253 residues) expressed in mammalian expression system assessed as residual binding level at 10 uM by Kinomescan method relative to control.
Assay [24] has as its target Serine/threonine-protein kinase WNK1 (Homo sapiens) (UniProt Q9H4A3). Nature of the assay: Binding affinity to wild-type human partial length WNK1 (Q194 to A490 residues) expressed in mammalian expression system assessed as residual binding level at 10 uM by Kinomescan method relative to control.

With `O=C(Nc1cc(-c2cn(CCNc3c4c(nc5ccccc35)CCCC4)nn2)ccn1)Nc1cccc2c1C1CCCCN1C2=O` (racemic), the Activity in [1] turned out to be 100%; in [2], 100%; in assay [3], 3.8%; in [4], 92%; in assay [5], 4.5%; in assay [6], 5%. Besides, the Activity in assay [7] was found to be 100%; in assay [8], 87%; in [9], 94%; in assay [10] it was 87%; in assay [11], 52%; in assay [12] it was 21%. Besides, the Activity amounted to 90% in assay [13]; 60% in assay [14]; 24% in [15]; 72% in assay [16]; 62% in assay [17]; 2.5% in assay [18]. The Activity in assay [19] came out at 4%; in [20], 78%; in [21], 15%; in assay [22] it was 7.3%; in assay [23] it was 9.1%; in assay [24] it was 100%.
